Earlier results on five molecules are cited in patent publication US6503920B1, “Cabergoline and pramipexole: new uses and combinations” (Pharmacia & Upjohn Company, priority 1998, dated 2003).

In series [1] the test system is PSP patients. The note with it: 120 mg/day, 2-week open label, two patients.
Series [2] has as its system PSP patients. The note with it: controlled trial.
The subject of series [3] is PSP patients.
For series [4], the system named is PSP patients. The note with it: 750-1500 mg per day.
For series [5], the system named is PSP patients. The note with it: controlled trial of 7 subjects.
Series [6] has as its system PSP patients. The note with it: 10 patients, double blind crossover.

Take `c1ccc2c(c1)OCC(C1=NCCN1)O2` (stereo not drawn) [Idazoxan]: in series [1], the marginal improvement is 12-34% and the side effects result is “sympathetic side effects were common”.
On to `CCCN1C[C@H](CSC)C[C@@H]2c3cccc4[nH]cc(c34)C[C@H]21` [Pergoline], for which, in series [2], the “subjects with mild antiparkinsonian effects” value is on record as 2/3.
For `N[C@@H](Cc1ccc(O)c(O)c1)C(=O)O` [L-dopa], the “most common side effects reported” value in series [3] is recorded as “development of hallucinations”. Also, in series [4], the “patients showing no effect” value was 44% and the “response rate showing mild to moderate improvement on the basis of clinical impressions” value is given as 54%.
Take `CCN(CC)C(=O)N[C@H]1C=C2c3cccc4[nH]cc(c34)C[C@H]2N(C)C1` [Lisuride]: in series [5], the “overall result of the trial” value is “not any significant results” and the “patients with mild improvement” value is recorded as “two patients had a mild improvement”.
As for `CCN1C(=O)CC2(CCN(C)CC2)C1=O` [RS-86], in series [6], the “motor or cognitive changes” value is given as “no consistent motor or cognitive changes”.
